Measurements as given in ChEMBL document CHEMBL4308841, “Synthesis, in vitro antiproliferative activity, and kinase inhibitory effects of pyrazole-containing diarylureas and diarylamides” (Eur J Med Chem, 2018).

Legend:
CAKI-1 = experiment: Growth inhibition of human Caki1 cells assessed as cell growth at 100 uM incubated for 48 hrs by sulforhodamine B assay relative to control; assay type: functional; settings: CAKI-1, 48 h, read-out: Activity
OVCAR-4 [1] = experiment: Growth inhibition of human OVCAR4 cells assessed as cell growth at 0.1 uM incubated for 48 hrs by sulforhodamine B assay relative to control; assay type: functional; settings: OVCAR-4, 48 h, read-out: Activity
HL-60(TB) = experiment: Growth inhibition of human HL-60(TB) cells incubated for 48 hrs by sulforhodamine B assay; assay type: functional, cell-based; settings: HL-60, 48 h
MDA-MB-231 = experiment: Growth inhibition of human MDA-MB-231 cells assessed as cell growth at 1 uM incubated for 48 hrs by sulforhodamine B assay relative to control; assay type: functional; settings: MDA-MB-231, 48 h, read-out: Activity
NCI-H460 = experiment: Growth inhibition of human NCI-H460 cells assessed as cell growth at 0.1 uM incubated for 48 hrs by sulforhodamine B assay relative to control; assay type: functional; settings: NCI-H460, 48 h, read-out: Activity
SK-MEL-2 = experiment: Growth inhibition of human SK-MEL-2 cells incubated for 48 hrs by sulforhodamine B assay; assay type: functional, cell-based; settings: SK-MEL-2, 48 h
OVCAR-4 [2] = experiment: Growth inhibition of human OVCAR4 cells assessed as cell growth at 100 uM incubated for 48 hrs by sulforhodamine B assay relative to control; assay type: functional; settings: OVCAR-4, 48 h, read-out: Activity
OVCAR-3 = experiment: Growth inhibition of human OVCAR3 cells assessed as cell growth at 100 uM incubated for 48 hrs by sulforhodamine B assay relative to control; assay type: functional; settings: OVCAR-3, 48 h, read-out: Activity
SK-MEL-28 [3] = experiment: Growth inhibition of human SK-MEL-28 cells assessed as cell growth at 1 uM incubated for 48 hrs by sulforhodamine B assay relative to control; assay type: functional; settings: SK-MEL-28, 48 h, read-out: Activity
MCF7 [4] = experiment: Growth inhibition of human MCF7 cells incubated for 48 hrs by sulforhodamine B assay; assay type: functional, cell-based; settings: MCF7, 48 h
NCI-H522 = experiment: Growth inhibition of human NCI-H522 cells assessed as cell growth at 100 uM incubated for 48 hrs by sulforhodamine B assay relative to control; assay type: functional; settings: NCI-H522, 48 h, read-out: Activity
A498 = experiment: Growth inhibition of human A498 cells assessed as cell growth at 1 uM incubated for 48 hrs by sulforhodamine B assay relative to control; assay type: functional; settings: A498, 48 h, read-out: Activity
SW-620 = experiment: Growth inhibition of human SW620 cells assessed as cell growth at 0.1 uM incubated for 48 hrs by sulforhodamine B assay relative to control; assay type: functional; settings: SW-620, 48 h, read-out: Activity
NCI-H226 = experiment: Growth inhibition of human NCI-H226 cells assessed as cell growth at 100 uM incubated for 48 hrs by sulforhodamine B assay relative to control; assay type: functional; settings: NCI-H226, 48 h, read-out: Activity
IGROV-1 = experiment: Growth inhibition of human IGROV1 cells assessed as cell growth at 100 uM incubated for 48 hrs by sulforhodamine B assay relative to control; assay type: functional; settings: IGROV-1, 48 h, read-out: Activity
SF-539 = experiment: Growth inhibition of human SF539 cells assessed as cell growth at 0.01 uM incubated for 48 hrs by sulforhodamine B assay relative to control; assay type: functional; settings: SF-539, 48 h, read-out: Activity
UO-31 = experiment: Growth inhibition of human UO31 cells assessed as cell growth at 1 uM incubated for 48 hrs by sulforhodamine B assay relative to control; assay type: functional; settings: UO-31, 48 h, read-out: Activity
SF-295 = experiment: Growth inhibition of human SF295 cells assessed as cell growth at 0.1 uM incubated for 48 hrs by sulforhodamine B assay relative to control; assay type: functional; settings: SF-295, 48 h, read-out: Activity
CCRF-CEM [5] = experiment: Growth inhibition of human CCRF-CEM cells assessed as cell growth at 0.01 uM incubated for 48 hrs by sulforhodamine B assay relative to control; assay type: functional; settings: read-out: Activity
RXF 393 = experiment: Growth inhibition of human RXF393 cells incubated for 48 hrs by sulforhodamine B assay; assay type: functional, cell-based; settings: RXF 393, 48 h
MCF7 [6] = experiment: Growth inhibition of human MCF7 cells assessed as cell growth at 0.1 uM incubated for 48 hrs by sulforhodamine B assay relative to control; assay type: functional; settings: MCF7, 48 h, read-out: Activity
M14 = experiment: Growth inhibition of human M14 cells assessed as cell growth at 1 uM incubated for 48 hrs by sulforhodamine B assay relative to control; assay type: functional; settings: M14, 48 h, read-out: Activity
SK-MEL-5 = experiment: Growth inhibition of human SK-MEL-5 cells assessed as cell growth at 100 uM incubated for 48 hrs by sulforhodamine B assay relative to control; assay type: functional; settings: SK-MEL-5, 48 h, read-out: Activity
CCRF-CEM [7] = experiment: Growth inhibition of human CCRF-CEM cells assessed as cell growth at 1 uM incubated for 48 hrs by sulforhodamine B assay relative to control; assay type: functional; settings: read-out: Activity
SK-MEL-28 [8] = experiment: Growth inhibition of human SK-MEL-28 cells assessed as cell growth at 0.1 uM incubated for 48 hrs by sulforhodamine B assay relative to control; assay type: functional; settings: SK-MEL-28, 48 h, read-out: Activity
NCI/ADR-RES = experiment: Growth inhibition of human NCI/ADR-RES cells assessed as cell growth at 0.1 uM incubated for 48 hrs by sulforhodamine B assay relative to control; assay type: functional; settings: read-out: Activity
SK-OV-3 = experiment: Growth inhibition of human SKOV3 cells assessed as cell growth at 0.01 uM incubated for 48 hrs by sulforhodamine B assay relative to control; assay type: functional; settings: SK-OV-3, 48 h, read-out: Activity
MOLT-4 = experiment: Growth inhibition of human MOLT4 cells assessed as cell growth at 0.1 uM incubated for 48 hrs by sulforhodamine B assay relative to control; assay type: functional; settings: MOLT-4, 48 h, read-out: Activity
MDA-MB-435 [9] = experiment: Growth inhibition of human MDA-MB-435 cells assessed as cell growth at 0.1 uM incubated for 48 hrs by sulforhodamine B assay relative to control; assay type: functional; settings: MDA-MB-435, 48 h, read-out: Activity
MDA-MB-435 [10] = experiment: Growth inhibition of human MDA-MB-435 cells assessed as cell growth at 1 uM incubated for 48 hrs by sulforhodamine B assay relative to control; assay type: functional; settings: MDA-MB-435, 48 h, read-out: Activity
KM12 = experiment: Growth inhibition of human KM12 cells assessed as cell growth at 1 uM incubated for 48 hrs by sulforhodamine B assay relative to control; assay type: functional; settings: KM12, 48 h, read-out: Activity
[11] = read-out: LC50 (the source's name)
[12] = read-out: pLC50 (the source's name) (converted)

Work on COc1cc(Cl)cc(-c2nn(-c3cccc(NC(=O)c4cccc(C(F)(F)F)c4)c3)cc2-c2ccncc2)c1 yielded a growth at 100 µM (CAKI-1) of 21%, a growth at 0.1 µM (OVCAR-4 [1]) of 95% and a GI50 (HL-60(TB); read-out: GI50) of 4.5 µM. For the same compound, the LC50 (HL-60(TB); read-out: LC50) was > 100 µM, the TGI (HL-60(TB); read-out: TGI) was > 100 µM and the GI50 (HL-60(TB); read-out: pGI50 (converted)) was 45.7 µM. For the same compound, the LC50 (HL-60(TB); read-out: pLC50 (converted)) was > 100 µM, the TGI (HL-60(TB); read-out: pTGI (converted)) was > 100 µM and the growth at 1 µM (MDA-MB-231) was 58%. The growth at 0.1 µM (NCI-H460) was 99%, the GI50 (SK-MEL-2; read-out: GI50) was 0.78 µM and the CC50 (SK-MEL-2; [11]) was > 100 µM. The TGI (SK-MEL-2; read-out: TGI) was > 100 µM, the GI50 (SK-MEL-2; read-out: pGI50 (converted)) was 6.76 µM and the CC50 (SK-MEL-2; [12]) was > 100 µM. For the same compound, the TGI (SK-MEL-2; read-out: pTGI (converted)) was > 100 µM, the growth at 100 µM (OVCAR-4 [2]) was 74% and the growth at 100 µM (OVCAR-3) was 38%. The growth at 1 µM (SK-MEL-28 [3]) was 92%, the GI50 (MCF7 [4]; read-out: GI50) was 4.17 µM and the LC50 (MCF7 [4]; read-out: LC50) was > 100 µM. For the same compound, the TGI (MCF7 [4]; read-out: TGI) was > 100 µM, the GI50 (MCF7 [4]; read-out: pGI50 (converted)) was 4.17 µM and the LC50 (MCF7 [4]; read-out: pLC50 (converted)) was > 100 µM. The TGI (MCF7 [4]; read-out: pTGI (converted)) was > 100 µM, the growth at 100 µM (NCI-H522) was 18% and the growth at 1 µM (A498) was 51%. The growth at 0.1 µM (SW-620) was 99%, the growth at 100 µM (NCI-H226) was 50% and the growth at 100 µM (IGROV-1) was 70%. The growth at 0.01 µM (SF-539) was 93%, the growth at 1 µM (UO-31) was 54% and the growth at 0.1 µM (SF-295) was 90%. For the same compound, the growth at 0.01 µM (CCRF-CEM [5]) was 96%, the LC50 (RXF 393) was > 100 µM and the GI50 (RXF 393; read-out: GI50) was 1570 nM. For the same compound, the TGI (RXF 393; read-out: TGI) was > 100 µM, the GI50 (RXF 393; read-out: pGI50 (converted)) was 1860 nM and the TGI (RXF 393; read-out: pTGI (converted)) was > 100 µM. The growth at 0.1 µM (MCF7 [6]) was 92%, the growth at 1 µM (M14) was 83% and the growth at 100 µM (SK-MEL-5) was 20%. For the same compound, the growth at 1 µM (CCRF-CEM [7]) was 53%, the growth at 0.1 µM (SK-MEL-28 [8]) was 97% and the growth at 0.1 µM (NCI/ADR-RES) was 104%. It also gave a growth at 0.01 µM (SK-OV-3) of 102%, a growth at 0.1 µM (MOLT-4) of 95% and a growth at 0.1 µM (MDA-MB-435 [9]) of 95%. It also gave a growth at 1 µM (MDA-MB-435 [10]) of 93% and a growth at 1 µM (KM12) of 56%.
COc1cc(Cl)cc(-c2nn(-c3cccc(NC(=O)c4ccc(N5CCOCC5)c(C(F)(F)F)c4)c3)cc2-c2ccncc2)c1 gave a growth at 100 µM (CAKI-1) of 14%, a growth at 0.1 µM (OVCAR-4 [1]) of 103% and a GI50 (HL-60(TB); read-out: GI50) of 4.19 µM. For the same compound, the LC50 (HL-60(TB); read-out: LC50) was > 100 µM, the TGI (HL-60(TB); read-out: TGI) was 33.2 µM and the GI50 (HL-60(TB); read-out: pGI50 (converted)) was 4.17 µM. For the same compound, the LC50 (HL-60(TB); read-out: pLC50 (converted)) was > 100 µM, the TGI (HL-60(TB); read-out: pTGI (converted)) was 33.1 µM and the growth at 1 µM (MDA-MB-231) was 78%. The growth at 0.1 µM (NCI-H460) was 102%, the GI50 (SK-MEL-2; read-out: GI50) was 2.11 µM and the CC50 (SK-MEL-2; [11]) was > 100 µM. For the same compound, the TGI (SK-MEL-2; read-out: TGI) was > 100 µM, the GI50 (SK-MEL-2; read-out: pGI50 (converted)) was 26.3 µM and the CC50 (SK-MEL-2; [12]) was > 100 µM. For the same compound, the TGI (SK-MEL-2; read-out: pTGI (converted)) was > 100 µM, the growth at 100 µM (OVCAR-4 [2]) was 38% and the growth at 100 µM (OVCAR-3) was 44%. The growth at 1 µM (SK-MEL-28 [3]) was 53%, the GI50 (MCF7 [4]; read-out: GI50) was 5.71 µM and the LC50 (MCF7 [4]; read-out: LC50) was > 100 µM. The TGI (MCF7 [4]; read-out: TGI) was > 100 µM, the GI50 (MCF7 [4]; read-out: pGI50 (converted)) was 8.71 µM and the LC50 (MCF7 [4]; read-out: pLC50 (converted)) was > 100 µM. The TGI (MCF7 [4]; read-out: pTGI (converted)) was > 100 µM, the growth at 100 µM (NCI-H522) was 31% and the growth at 1 µM (A498) was 55%. The growth at 0.1 µM (SW-620) was 101%, the growth at 100 µM (NCI-H226) was 50% and the growth at 100 µM (IGROV-1) was 54%. For the same compound, the growth at 0.01 µM (SF-539) was 99%, the growth at 1 µM (UO-31) was 52% and the growth at 0.1 µM (SF-295) was 94%. For the same compound, the growth at 0.01 µM (CCRF-CEM [5]) was 96%, the LC50 (RXF 393) was > 100 µM and the GI50 (RXF 393; read-out: GI50) was 830 nM. For the same compound, the TGI (RXF 393; read-out: TGI) was 23.9 µM, the GI50 (RXF 393; read-out: pGI50 (converted)) was 813 nM and the TGI (RXF 393; read-out: pTGI (converted)) was 24 µM. It also gave a growth at 0.1 µM (MCF7 [6]) of 92%, a growth at 1 µM (M14) of 58% and a growth at 100 µM (SK-MEL-5) of 21%. It also gave a growth at 1 µM (CCRF-CEM [7]) of 56%, a growth at 0.1 µM (SK-MEL-28 [8]) of 103% and a growth at 0.1 µM (NCI/ADR-RES) of 99%. The growth at 0.01 µM (SK-OV-3) was 102%, the growth at 0.1 µM (MOLT-4) was 90% and the growth at 0.1 µM (MDA-MB-435 [9]) was 98%. The growth at 1 µM (MDA-MB-435 [10]) was 92% and the growth at 1 µM (KM12) was 52%.
